Tests used:
[1] = Pharmacokinetic experiment in mice, plasma concentrations by LC-MS/MS; assay type: in vivo, C57Bl/6J mice; settings: higher doses, oral, compared to psilocybin
Protocol: (§1) In a pharmacokinetic experiment in C57Bl/6J mice (3 animals per timepoint; schedule shown below) two example compounds, Cy1 (4-HO-EPT glycoside) and Cy2 (4-HO-DMT glycoside) were dosed at two different concentrations (20 mg/kg dose shown here) and the parent compounds and their de-glycosylated forms, 4-HO-EPT and psilocin (4-HO-DMT), respectively, were measured by LC-MS/MS in plasma and brain tissue samples. For comparison, psilocybin was dosed at 1.5 mg/kg orally and plasma and brain tissue concentrations of psilocin (4-HO-DMT) were measured. Samples were collected at four or five different timepoints (from 10-minutes post dosing up to 6-hours post dosing) following the test article administration.
(§2) Results are reported in ng/mL for the concentration in plasma and in ng/g tissue for the concentration measured in brain samples.
(§3) Results: The graphs in FIG. 35, FIG. 36, FIG. 37, and FIG. 38 display the time course of concentrations of compounds as indicated. For each time point the data for the individual animals are plotted.

[2] = Pharmacokinetic experiment in mice, brain tissue concentrations by LC-MS/MS; assay type: in vivo, C57Bl/6J mice; settings: higher doses, oral, compared to psilocybin
Protocol: as §1, §2, §3

With CCCN(CC)CCc1c[nH]c2cccc(O[C@@H]3O[C@H](CO)[C@@H](O)[C@H](O)[C@H]3O)c12 [Cy1, 4-HO-EPT glycoside] the “period of exposure, plasma” value [1] was “extended” and the “period of exposure, brain” value [2] was “extended”.
